Values quoted from earlier work, collected in patent US20170100348A1, “Treatment Regime for Chronic Sinusitis” (priority 2015, published 2017).

Legend:
[1] = system: streptococcus mutans
[2] = system: microbial organisms; conditions: background statement
[3] = system: Pseudomonas aeruginosa; conditions: bacteria and phenolic compound incubated together on a plate
[4] = system: Pseudomonas aerunginosa; conditions: background statement, FIG. 1
[5] = system: fungi

| Compound | preventing biofilm formation [1] | bacteriocidal concentration [2] | bacteriostatic concentration [2] | biofilm formation compared to the control [3] | concentration with activity against Pseudomonas aerunginosa [4] | fungicidal concentration [5] |
| --- | --- | --- | --- | --- | --- | --- |
| Oc1ccccc1 [Phenol] | effective | 0.04-1.0% | greater than 0.02% | significant reduction in formation of biofilm | 0.5-1.0% | greater than 1.3% |
| O=C(O[C@@H]1Cc2c(O)cc(O)cc2O[C@@H]1c1cc(O)c(O)c(O)c1)c1cc(O)c(O)c(O)c1 [epigallocatechin gallate] | – | – | – | significant reduction in formation of biofilm | – | – |
| Catechin | – | – | – | significant reduction in formation of biofilm | – | – |
| O=C(OC[C@H]1O[C@@H](OC(=O)c2cc(O)c(O)c(OC(=O)c3cc(O)c(O)c(O)c3)c2)[C@H](OC(=O)c2cc(O)c(O)c(OC(=O)c3cc(O)c(O)c(O)c3)c2)[C@@H](OC(=O)c2cc(O)c(O)c(OC(=O)c3cc(O)c(O)c(O)c3)c2)[C@@H]1OC(=O)c1cc(O)c(O)c(OC(=O)c2cc(O)c(O)c(O)c2)c1)c1cc(O)c(O)c(OC(=O)c2cc(O)c(O)c(O)c2)c1 [tannic acid] | – | – | – | significant reduction in formation of biofilm | – | – |
